Assay: molar heat capacity at saturation pressure
Conditions: Vacuum adiabatic calorimetry

BrC12CC3CC(CC(C3)C1)C2 [1-bromotricyclo[3.3.1.1(3,7)]decane]
Conditions	molar heat capacity [J/K/mol]
5.98 K, Crystal 4	1.102
6.34 K, Crystal 4	1.301
6.73 K, Crystal 4	1.56
7.05 K, Crystal 4	1.776
7.4 K, Crystal 4	2.048
7.78 K, Crystal 4	2.391
8.34 K, Crystal 4	2.94
8.96 K, Crystal 4	3.558
9.37 K, Crystal 4	4.013
9.8 K, Crystal 4	4.489
10.27 K, Crystal 4	5.11
10.71 K, Crystal 4	5.643
11.11 K, Crystal 4	6.154
11.51 K, Crystal 4	6.677
11.92 K, Crystal 4	7.254
12.35 K, Crystal 4	7.849
12.82 K, Crystal 4	8.366
13.25 K, Crystal 4	9.058
14.09 K, Crystal 4	10.21
14.56 K, Crystal 4	10.84
15 K, Crystal 4	11.48
15.42 K, Crystal 4	12.01
15.87 K, Crystal 4	12.79
16.34 K, Crystal 4	13.48
16.79 K, Crystal 4	14.11
17.32 K, Crystal 4	14.74
17.91 K, Crystal 4	15.58
18.48 K, Crystal 4	16.3
19.01 K, Crystal 4	17.14
19.61 K, Crystal 4	17.85
20.29 K, Crystal 4	18.72
20.93 K, Crystal 4	19.58
21.63 K, Crystal 4	20.43
22.39 K, Crystal 4	21.39
23.1 K, Crystal 4	22.23
23.9 K, Crystal 4	23.12
24.76 K, Crystal 4	24.04
25.69 K, Crystal 4	25.07
26.66 K, Crystal 4	26.14
27.58 K, Crystal 4	27.16
28.56 K, Crystal 4	28.01
29.52 K, Crystal 4	28.99
29.57 K, Crystal 4	29.29
30.13 K, Crystal 4	29.69
30.42 K, Crystal 4	30.4
30.62 K, Crystal 4	30.95
30.71 K, Crystal 4	31.25
31.02 K, Crystal 4	33.37
31.27 K, Crystal 3	31.25
31.56 K, Crystal 3	31.24
31.81 K, Crystal 3	31.34
32.25 K, Crystal 3	31.61
33.06 K, Crystal 3	32.35
33.28 K, Crystal 3	32.47
34.66 K, Crystal 3	33.75
36.35 K, Crystal 3	35.07
38.12 K, Crystal 3	36.42
39.98 K, Crystal 3	37.78
41.9 K, Crystal 3	39.06
43.96 K, Crystal 3	40.39
46.12 K, Crystal 3	41.85
48.32 K, Crystal 3	43.17
50.74 K, Crystal 3	44.52
53.31 K, Crystal 3	45.98
55.82 K, Crystal 3	47.36
58.21 K, Crystal 3	48.67
60.62 K, Crystal 3	50.13
63.03 K, Crystal 3	51.45
65.43 K, Crystal 3	52.6
67.86 K, Crystal 3	54.08
70.3 K, Crystal 3	55.24
72.8 K, Crystal 3	56.68
75.3 K, Crystal 3	57.96
77.74 K, Crystal 3	59.21
80.19 K, Crystal 3	60.74
82.69 K, Crystal 3	61.79
85.17 K, Crystal 3	63.27
87.66 K, Crystal 3	64.58
90.17 K, Crystal 3	65.86
92.68 K, Crystal 3	67.39
95.2 K, Crystal 3	68.53
97.74 K, Crystal 3	70.12
100.3 K, Crystal 3	71.52
100.96 K, Crystal 3	71.76
102.83 K, Crystal 3	72.73
104.15 K, Crystal 3	73.63
105.3 K, Crystal 3	74.09
107.32 K, Crystal 3	75.22
110.3 K, Crystal 3	76.73
113.21 K, Crystal 3	78.44
116.14 K, Crystal 3	79.82
119.1 K, Crystal 3	81.75
122.01 K, Crystal 3	83.28
124.86 K, Crystal 3	84.61
127.91 K, Crystal 3	86.56
131.28 K, Crystal 3	88.26
134.63 K, Crystal 3	90.38
137.93 K, Crystal 3	91.96
141.17 K, Crystal 3	93.89
144.35 K, Crystal 3	95.86
147.49 K, Crystal 3	97.33
150.64 K, Crystal 3	99.37
153.81 K, Crystal 3	101.4
156.99 K, Crystal 3	103
160.16 K, Crystal 3	104.9
160.53 K, Crystal 3	105.5
163.7 K, Crystal 3	107.4
166.86 K, Crystal 3	109.4
169.99 K, Crystal 3	111.2
173.09 K, Crystal 3	113.3
176.19 K, Crystal 3	115.1
179.34 K, Crystal 3	117.2
182.56 K, Crystal 3	119.4
185.78 K, Crystal 3	121.5
189.07 K, Crystal 3	123.6
192.43 K, Crystal 3	126.2
195.86 K, Crystal 3	128.7
199.38 K, Crystal 3	130.9
202.85 K, Crystal 3	133.7
206.29 K, Crystal 3	135.9
209.76 K, Crystal 3	138.8
213.19 K, Crystal 3	141.4
216.58 K, Crystal 3	143.7
220.01 K, Crystal 3	146.7
223.4 K, Crystal 3	149.2
226.82 K, Crystal 3	152.2
230.32 K, Crystal 3	155.2
230.97 K, Crystal 3	155.8
234.32 K, Crystal 3	158.8
237.7 K, Crystal 3	162.3
241 K, Crystal 3	166.2
241.09 K, Crystal 3	165.9
244.38 K, Crystal 3	169.3
244.57 K, Crystal 3	169.7
247.65 K, Crystal 3	173
248.16 K, Crystal 3	173.6
251.11 K, Crystal 3	177.1
251.71 K, Crystal 3	177.8
254.61 K, Crystal 3	181.5
255.15 K, Crystal 3	182.1
257.99 K, Crystal 3	186.2
258.5 K, Crystal 3	187.1
261.32 K, Crystal 3	192.1
261.93 K, Crystal 3	193.3
264.6 K, Crystal 3	198.2
265.32 K, Crystal 3	200.1
267.83 K, Crystal 3	205.5
268.59 K, Crystal 3	207.2
271.04 K, Crystal 3	214.7
271.85 K, Crystal 3	217.2
274.2 K, Crystal 3	227.6
275.09 K, Crystal 3	231.6
277.23 K, Crystal 3	248.5
278.12 K, Crystal 3	258.4
279.76 K, Crystal 3	284.9
280.08 K, Crystal 3	308.9
280.17 K, Crystal 3	297.9
280.56 K, Crystal 3	309.4
280.94 K, Crystal 3	336.3
281.3 K, Crystal 3	377.6
281.63 K, Crystal 3	422.2
281.93 K, Crystal 3	523.4
282.18 K, Crystal 3	643.2
282.41 K, Crystal 2	586.3
282.52 K, Crystal 2	470.3
282.69 K, Crystal 2	384.2
283.04 K, Crystal 2	278.4
283.48 K, Crystal 2	248.5
283.93 K, Crystal 2	226.3
284.68 K, Crystal 2	219.3
285.09 K, Crystal 2	222.5
286.24 K, Crystal 2	214.2
288.26 K, Crystal 2	209.5
290.59 K, Crystal 2	211.1
291.43 K, Crystal 2	211.7
293.15 K, Crystal 2	212.4
294.62 K, Crystal 2	213.4
295.8 K, Crystal 2	213.7
298.44 K, Crystal 2	215.6
298.96 K, Crystal 2	215.9
301.06 K, Crystal 2	217.3
303.6 K, Crystal 2	220.7
306.07 K, Crystal 2	236.7
308.13 K, Crystal 2	437.7
312.39 K, Crystal 1	249
314.9 K, Crystal 1	250.6
314.98 K, Crystal 1	251.1
317.39 K, Crystal 1	253.5
317.63 K, Crystal 1	254

From the NIST ThermoML archive (doi:10.1016/j.jct.2004.10.005)
